Measured values from US20210009564A1, “CALPAIN MODULATORS AND THERAPEUTIC USES THEREOF” (BLADE THERAPERTICS, INC., priority 2018, published 2021).
pIC50: −log10 of the molar value.

Tests used:
Human Calpain 1/NS1 = target: T1, Human Calpain 1/NS1 (Homo sapiens, UniProt P07384); experiment: Calpain inhibition, continuous fluorescence (FRET substrate) assay, calpain 1; type: biochemical; conditions: SensoLyte 520 FRET substrate, 25C
T1 sequence (P07384 1-714): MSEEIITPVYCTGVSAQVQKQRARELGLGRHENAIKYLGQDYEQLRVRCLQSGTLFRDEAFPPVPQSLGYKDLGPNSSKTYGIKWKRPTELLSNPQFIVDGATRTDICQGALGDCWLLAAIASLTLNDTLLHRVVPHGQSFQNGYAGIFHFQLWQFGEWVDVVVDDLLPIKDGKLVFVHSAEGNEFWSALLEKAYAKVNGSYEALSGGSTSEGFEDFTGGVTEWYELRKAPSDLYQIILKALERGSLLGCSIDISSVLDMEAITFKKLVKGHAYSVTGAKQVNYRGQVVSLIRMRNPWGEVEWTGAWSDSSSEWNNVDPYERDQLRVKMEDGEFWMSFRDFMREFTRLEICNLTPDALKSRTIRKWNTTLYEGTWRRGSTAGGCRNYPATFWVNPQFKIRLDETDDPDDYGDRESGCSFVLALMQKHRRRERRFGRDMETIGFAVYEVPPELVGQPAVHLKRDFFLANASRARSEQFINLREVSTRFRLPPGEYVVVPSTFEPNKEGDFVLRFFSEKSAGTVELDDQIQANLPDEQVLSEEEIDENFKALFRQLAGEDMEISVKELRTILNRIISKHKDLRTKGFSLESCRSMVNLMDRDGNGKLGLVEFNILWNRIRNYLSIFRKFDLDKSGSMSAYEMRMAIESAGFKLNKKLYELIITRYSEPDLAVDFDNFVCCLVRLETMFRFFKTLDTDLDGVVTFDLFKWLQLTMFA
T1 sequence (P04632 1-268 partner): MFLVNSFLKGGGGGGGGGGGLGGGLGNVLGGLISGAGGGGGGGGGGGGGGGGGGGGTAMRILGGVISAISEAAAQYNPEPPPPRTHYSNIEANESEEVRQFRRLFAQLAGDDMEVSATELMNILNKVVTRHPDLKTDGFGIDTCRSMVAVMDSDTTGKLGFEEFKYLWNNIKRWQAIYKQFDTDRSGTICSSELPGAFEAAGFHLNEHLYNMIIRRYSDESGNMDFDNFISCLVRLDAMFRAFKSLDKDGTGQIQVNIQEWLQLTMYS
Procedure, shortened: (§1)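 Calpains preincubated with serially diluted inhibitors at 25 °C in 50 mM Tris pH 7.5, 100 mM NaCl, 1 mM DTT; CaCl2 plus 5-FAM/QXL 520 FRET substrate started the reaction. Fluorescence (490/520 nm) read 10 min; rates from 1-5 min slopes, IC50 from 4-parameter logistic fit.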

Human Calpain 2/NS1 = target: T2, Human Calpain 2/NS1 (Homo sapiens, UniProt P17655); experiment: Calpain inhibition, continuous fluorescence (FRET substrate) assay, calpain 2; type: biochemical; conditions: SensoLyte 520 FRET substrate, 25C
T2 sequence (P17655 1-700): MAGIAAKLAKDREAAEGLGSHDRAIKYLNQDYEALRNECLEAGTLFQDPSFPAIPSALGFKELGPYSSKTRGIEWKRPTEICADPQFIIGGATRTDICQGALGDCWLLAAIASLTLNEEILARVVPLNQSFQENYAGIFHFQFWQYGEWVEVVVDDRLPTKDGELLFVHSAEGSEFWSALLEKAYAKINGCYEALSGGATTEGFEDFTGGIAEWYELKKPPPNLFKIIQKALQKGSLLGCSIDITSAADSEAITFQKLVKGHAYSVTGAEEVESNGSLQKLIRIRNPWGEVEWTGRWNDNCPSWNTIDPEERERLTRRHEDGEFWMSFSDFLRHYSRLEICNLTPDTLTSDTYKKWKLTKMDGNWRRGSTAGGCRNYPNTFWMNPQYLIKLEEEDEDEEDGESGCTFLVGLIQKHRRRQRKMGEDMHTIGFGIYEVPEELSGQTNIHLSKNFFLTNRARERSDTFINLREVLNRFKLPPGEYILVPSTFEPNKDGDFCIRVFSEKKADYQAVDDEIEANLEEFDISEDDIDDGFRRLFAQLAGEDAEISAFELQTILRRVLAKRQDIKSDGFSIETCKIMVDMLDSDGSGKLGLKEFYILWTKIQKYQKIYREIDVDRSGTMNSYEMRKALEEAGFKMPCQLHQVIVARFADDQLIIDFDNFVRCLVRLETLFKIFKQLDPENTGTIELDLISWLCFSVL
T2 sequence (P04632 1-268 partner): T1 sequence (P04632 1-268 partner)
Procedure, shortened: as §1

Human Calpain 9/NS1 = target: T3, Human Calpain 9/NS1 (Homo sapiens, UniProt O14815); experiment: Calpain inhibition, continuous fluorescence (FRET substrate) assay, calpain 9; type: biochemical; conditions: SensoLyte 520 FRET substrate, 25C
T3 sequence (O14815 1-690): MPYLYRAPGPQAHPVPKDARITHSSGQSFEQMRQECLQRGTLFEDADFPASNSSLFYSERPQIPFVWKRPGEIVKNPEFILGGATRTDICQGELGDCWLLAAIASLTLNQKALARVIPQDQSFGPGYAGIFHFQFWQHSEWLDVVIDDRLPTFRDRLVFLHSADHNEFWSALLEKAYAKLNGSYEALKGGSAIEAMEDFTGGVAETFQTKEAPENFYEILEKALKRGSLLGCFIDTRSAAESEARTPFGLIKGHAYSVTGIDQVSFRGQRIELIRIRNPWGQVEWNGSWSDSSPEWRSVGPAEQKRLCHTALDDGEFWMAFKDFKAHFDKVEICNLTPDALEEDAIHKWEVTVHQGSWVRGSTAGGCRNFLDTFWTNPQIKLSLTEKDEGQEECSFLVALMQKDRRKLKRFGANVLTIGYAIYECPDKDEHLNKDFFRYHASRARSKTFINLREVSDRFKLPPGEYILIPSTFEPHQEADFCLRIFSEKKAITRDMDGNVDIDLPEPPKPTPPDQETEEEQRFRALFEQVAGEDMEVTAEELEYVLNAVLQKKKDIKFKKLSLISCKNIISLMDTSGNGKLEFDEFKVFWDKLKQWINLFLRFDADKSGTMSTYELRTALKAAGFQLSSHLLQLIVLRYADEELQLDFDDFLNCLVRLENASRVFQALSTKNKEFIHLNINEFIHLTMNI
T3 sequence (P04632 1-268 partner): T1 sequence (P04632 1-268 partner)
Procedure, shortened: as §1

[1] = tested on: Calpain activity in SH-SY5Y cells; experiment: SH-SY5Y spectrin breakdown product (SBDP-150) western blot assay; type: cell-based; conditions: Homo sapiens, read-out: SH-SY5Y Spectrin IC50
[2] = tested on: Calpain activity in SH-SY5Y cells; experiment: SH-SY5Y Suc-LLVY-AMC fluorescence assay; type: cell-based; conditions: Homo sapiens, read-out: SH-SY5Y + AMC IC50
[3] = SH-SY5Y cells, 25 uM A23187, SBDP-150 western blot
[4] = SH-SY5Y cells, 100 uM Suc-LLVY-AMC

Structure (SMILES)	pIC50 (Human Calpain 1/NS1)	pIC50 (Human Calpain 2/NS1)	pIC50 (Human Calpain 9/NS1)	pIC50 [1, 3]	pIC50 [2, 4]	pIC50 ([1]; SH-SY5Y)	pIC50 ([2]; SH-SY5Y)
Cn1cc(C(=O)NC(Cc2ccccc2)C(=O)C(N)=O)c(-n2cnc3ccc(F)cc32)n1 (stereo not drawn) [Compound 47, N-(4-AMINO-3,4-DIOXO-1-PHENYLBUTAN-2-YL)-3-(6-FLUORO-1H-BENZO[D]IMIDAZOL-1-YL)-1-METHYL-1H-PYRAZOLE-4-CARBOXAMIDE]	> 5.52	> 5.52	> 5.52	4.60 to 5.00	< 4.60		
NC(=O)C(=O)C(Cc1ccccc1)NC(=O)c1cn(C(F)F)nc1-c1cccc2oc(=O)[nH]c12 (stereo not drawn) [Compound 50, N-(4-AMINO-3,4-DIOXO-1-PHENYLBUTAN-2-YL)-1-(DIFLUOROMETHYL)-3-(2-OXO-2,3-DIHYDROBENZO[D]OXAZOL-4-YL)-1H-PYRAZOLE-4-CARBOXAMIDE]	> 5.52	> 5.52	> 5.52	4.60 to 5.00	4.60 to 5.00		
Cn1cc(C(=O)NC(Cc2ccccc2)C(=O)C(N)=O)c(-c2cccc3scnc23)n1 (stereo not drawn) [Compound 51, N-(4-AMINO-3,4-DIOXO-1-PHENYLBUTAN-2-YL)-3-(BENZO[D]THIAZOL-4-YL)-1-METHYL-1H-PYRAZOLE-4-CARBOXAMIDE]	> 5.52	> 5.52	> 5.52	4.60 to 5.00	< 4.60		
Cc1cc(C(=O)NC(Cc2ccccc2)C(=O)C(N)=O)nn1-c1nccc(-c2ccccc2)n1 (stereo not drawn) [Compound 59, N-(4-AMINO-3,4-DIOXO-1-PHENYLBUTAN-2-YL)-5-METHYL-1-(4-PHENYLPYRIMIDIN-2-YL)-1H-PYRAZOLE-3-CARBOXAMIDE]	< 5.00	5.00 to 5.52	< 5.00			< 4.60	> 5.00
O=C(O)C(=O)C(Cc1ccccc1)NC(=O)c1cn(C2CC2)nc1-c1ccccc1 (stereo not drawn) [Compound 60, 3-(1-CYCLOPROPYL-3-PHENYL-1H-PYRAZOLE-4-CARBOXAMIDO)-2-OXO-4-PHENYLBUTANOIC ACID]	> 5.52	> 5.52	> 5.52	4.60 to 5.00	4.60 to 5.00		
Cn1ncc2c(-c3nn(C(F)F)cc3C(=O)NC(Cc3ccccc3)C(=O)C(N)=O)cccc21 (stereo not drawn) [Compound 62, N-(4-AMINO-3,4-DIOXO-1-PHENYLBUTAN-2-YL)-1-(DIFLUOROMETHYL)-3-(1-METHYL-1H-INDAZOL-4-YL)-1H-PYRAZOLE-4-CARBOXAMIDE]	> 5.52	> 5.52	> 5.52	> 5.00	> 5.00		
NC(=O)C(=O)C(Cc1ccccc1)NC(=O)c1cn(C(F)F)nc1-c1ncnc2ccccc12 (stereo not drawn) [Compound 63, N-(4-AMINO-3,4-DIOXO-1-PHENYLBUTAN-2-YL)-1-(DIFLUOROMETHYL)-3-(QUINAZOLIN-4-YL)-1H-PYRAZOLE-4-CARBOXAMIDE]	> 5.52	> 5.52	> 5.52	4.60 to 5.00	> 5.00		

Second part, led by results:

pIC50 (Human Calpain 1/NS1)	pIC50 (Human Calpain 2/NS1)	pIC50 (Human Calpain 9/NS1)	pIC50 [1, 3]	pIC50 [2, 4]	Structure (SMILES)	pIC50 ([1]; SH-SY5Y)	pIC50 ([2]; SH-SY5Y)
> 5.52	> 5.52	> 5.52	> 5.00	4.60 to 5.00	Cn1cc(C(=O)NC(Cc2ccccc2)C(=O)C(N)=O)c(-n2cnc3cc(F)ccc32)n1 (stereo not drawn) [Compound 48, N-(4-AMINO-3,4-DIOXO-1-PHENYLBUTAN-2-YL)-3-(5-FLUORO-1H-BENZO[D]IMIDAZOL-1-YL)-1-METHYL-1H-PYRAZOLE-4-CARBOXAMIDE]		
> 5.52	> 5.52	> 5.52	< 4.60	4.60 to 5.00	Cn1cc(C(=O)NC(Cc2ccccc2)C(=O)C(N)=O)c(-c2ncnc3ccccc23)n1 (stereo not drawn) [Compound 49, N-(4-AMINO-3,4-DIOXO-1-PHENYLBUTAN-2-YL)-1-METHYL-3-(QUINAZOLIN-4-YL)-1H-PYRAZOLE-4-CARBOXAMIDE]		
> 5.52	> 5.52	> 5.52	4.60 to 5.00	< 4.60	NC(=O)C(=O)C(Cc1ccccc1)NC(=O)c1nsnc1-c1coc(Cl)c1 (stereo not drawn) [Compound 52, N-(4-AMINO-3,4-DIOXO-1-PHENYLBUTAN-2-YL)-4-(5-CHLOROFURAN-3-YL)-1,2,5-THIADIAZOLE-3-CARBOXAMIDE]		
> 5.52	> 5.52	> 5.52	< 4.60	< 4.60	Cn1cc(C(=O)NC(Cc2ccccc2)C(=O)C(N)=O)c(-c2cccc3ccncc23)n1 (stereo not drawn) [Compound 54]		
> 5.52	> 5.52	> 5.52	< 4.60	> 5.00	Cc1cc(-c2nn(C)cc2C(=O)NC(Cc2ccccc2)C(=O)C(N)=O)c(C)o1 (stereo not drawn) [Compound 55, N-(4-AMINO-3,4-DIOXO-1-PHENYLBUTAN-2-YL-3-(2,5-DIMETHYLFURAN-3-YL)-1-METHYL-1H-PYRAZOLE-4-CARBOXAMIDE]		
< 5.00	< 5.00	< 5.00	< 4.60	< 4.60	O=C(NC(Cc1ccccc1)C(=O)Nc1ncco1)c1nsnc1-c1ccccc1 (stereo not drawn) [Compound 57, N-(1-(OXAZOL-2-YLAMINO)-1-OXO-3-PHENYLPROPAN-2-YL)-4-PHENYL-1,2,5-THIADIAZOLE-3-CARBOXAMIDE]		
> 5.52	> 5.52	> 5.52	> 5.00	> 5.00	Cc1nc(-c2cccc3ccccc23)c(C(=O)NC(Cc2ccccc2)C(=O)C(N)=O)o1 (stereo not drawn) [Compound 58, N-(4-AMINO-3,4-DIOXO-1-PHENYLBUTAN-2-YL)-2-METHYL-4-(NAPHTHALEN-1-YL)OXAZOLE-5-CARBOXAMIDE]		
> 5.52	> 5.52	> 5.52	> 5.00	> 5.00	Cn1cc2c(-c3nn(C(F)F)cc3C(=O)NC(Cc3ccccc3)C(=O)C(N)=O)cccc2n1 (stereo not drawn) [Compound 61, N-(4-AMINO-3,4-DIOXO-1-PHENYLBUTAN-2-YL)-1-(DIFLUOROMETHYL)-3-(2-METHYL-2H-INDAZOL-4-YL)-1H-PYRAZOLE-4-CARBOXAMIDE]		
